# Test: In vivo biodistribution of ^225Ac complexes after intravenous injection
# Parameters: species or system C57BL/6 mice
# Procedure: In Vivo Biodistribution of ^225Ac Complexes of Macropa and DOTA. All experiments were approved by the Institutional Animal Care Committee (IACC) of the University of British Columbia and were performed in accordance with the Canadian Council on Animal Care Guidelines. A total of 9 female C57BL/6 mice (6-8 weeks old, 20-25 g) were used for the biodistribution study of each radiometal complex, n=3 for each time point.
# Macropa (100 μL of a 1 mg/mL solution in NH4OAc) was diluted with 387 μL of NH4OAc (1 M, pH 7), and an aliquot (203 μL) of ^225Ac(NO3)3 (˜157 kBq) was then added; the pH of this solution was adjusted to 6.5-7 by the addition of 1 M NaOH (210 μL, trace metal grade). After 5 min at ambient temperature, the reaction solution was analyzed by TLC (0.4 M pH 4 sodium citrate as the eluent), which confirmed >95% radiochemical yield. The reaction was allowed to proceed overnight, and the radiochemical yield was again confirmed to be >95% the following morning. At this time, mice were anesthetized by 2% isoflurane, and approximately 100 μL (10-15 kBq) of the [^225Ac(macropa)]^+ complex were injected into the tail vein of each mouse. After injection, mice were allowed to recover and roam freely in their cages, and were euthanized by CO2 inhalation at 15 min, 1 h, or 5 h (n=3 at each time point) post-injection. Blood was collected by cardiac puncture and placed into an appropriate test tube for scintillation counting. Tissues collected included heart, liver, kidneys, lungs, small intestine, large intestine, brain, bladder, spleen, stomach, pancreas, bone, thyroid, tail, urine, and feces. Tissues were weighed and then counted with a calibrated gamma counter (Packard, Cobra II model 5002) using three energy windows: 60-120 keV (window A), 180-260 keV (window B), and 400-480 keV (window C). Counting was performed both immediately after sacrifice and after 7 days; counts were decay corrected from the time of injection and then converted to the percentage of injected dose (% ID) per gram of tissue (% ID/g). No differences were noted between the data; therefore, the biodistributions are reported using the data acquired immediately using window A.
# The biodistribution studies of [^225Ac(DOTA)]^− and ^225Ac(NO3)3 were carried out as described above for [^225Ac(macropa)]^+, with the following modifications. [^225Ac(DOTA)]^− was prepared by adding ^225Ac(NO3)3 (338 μL, 1.1 MBq) to a solution of DOTA (100 μg, 20 mg/mL in H2O) in NH4OAc (467 μL, 0.15 M, pH 7). The pH of the solution was adjusted to 7 using NH4OAc (150 μL, 1 M, pH 7) and the solution was heated at 85° C. for 45 min. RCY>99% was confirmed by TLC as described above. [^225Ac(DOTA)]^− was diluted with saline to a final concentration of 0.05 MBq/100 μL, and 100 μL were injected into each mouse. ^225Ac(NO3)3 (˜58 μL, 0.4 MBq) was diluted and injected in the same manner as [^225Ac(DOTA)]^−. One mouse that was to be euthanized at the 5 h time point in the [^225Ac(DOTA)]^− study died shortly after injection. In the same manner, one mouse that was to be euthanized at the 1 h time point in the ^225Ac(NO3)3 study died.
# The in vivo stability [^225Ac(macropa)]^+ was examined by comparing its biodistribution to those of ^225Ac(NO3)3 and [^225Ac(DOTA)]^−. C57BL/6 mice were injected via tail vein with 10-50 kBq of each radiometal complex and were sacrificed after 15 min, 1 h, or 5 h. The amount of ^225Ac retained in each organ was quantified by gamma counting and reported as the percent of injected dose per gram of tissue (% ID/g). The results of these studies are compiled in Tables 1-3. Inadequate stability of an ^225Ac complex leading to the loss of radioisotope in vivo is manifested by the accumulation of ^225Ac in the liver, spleen, and bone of mice.^[11,12,32] […] The biodistribution profile of [^225Ac(macropa)]^+ (FIG. 3B) differs markedly from that of ^225Ac(NO3)3. […]
# [1] = 15 min after i.v. injection, energy window A (60-120 keV)
# [2] = 15 min after i.v. injection, energy window B (180-260 keV)
# [3] = 15 min after i.v. injection, energy window C (400-480 keV)
# [4] = 1 h after i.v. injection, energy window A (60-120 keV)
# [5] = 1 h after i.v. injection, energy window B (180-260 keV)
structure (smiles),measurement,setting,value
O=[N+]([O-])[O-].O=[N+]([O-])[O-].O=[N+]([O-])[O-].[225Ac] [^225Ac(NO3)3],% ID/g in bladder,[1],1.477 % ID/g
same,% ID/g in blood,[1],40.966 % ID/g
same,% ID/g in bone (femur + joint),[1],2.764 % ID/g
same,% ID/g in brain,[1],0.614 % ID/g
same,% ID/g in feces,[1],0.240 % ID/g
same,% ID/g in heart,[1],8.557 % ID/g
same,% ID/g in kidneys,[1],10.468 % ID/g
same,% ID/g in large intestines,[1],1.116 % ID/g
same,% ID/g in liver,[1],22.899 % ID/g
same,% ID/g in lungs,[1],12.757 % ID/g
same,% ID/g in pancreas,[1],2.366 % ID/g
same,% ID/g in small intestines,[1],2.002 % ID/g
same,% ID/g in spleen,[1],22.733 % ID/g
same,% ID/g in stomach,[1],2.348 % ID/g
same,% ID/g in tail,[1],7.459 % ID/g
same,% ID/g in thyroids,[1],4.391 % ID/g
same,% ID/g in urine,[1],5.527 % ID/g
same,% ID/g in bladder,[2],1.6996 % ID/g
same,% ID/g in blood,[2],41.5628 % ID/g
same,% ID/g in bone (femur + joint),[2],2.7487 % ID/g
same,% ID/g in brain,[2],0.6536 % ID/g
same,% ID/g in feces,[2],0.3857 % ID/g
same,% ID/g in heart,[2],8.3605 % ID/g
same,% ID/g in kidneys,[2],9.6424 % ID/g
same,% ID/g in large intestines,[2],1.1570 % ID/g
same,% ID/g in liver,[2],23.6091 % ID/g
same,% ID/g in lungs,[2],12.9714 % ID/g
same,% ID/g in pancreas,[2],2.2821 % ID/g
same,% ID/g in small intestines,[2],1.9641 % ID/g
same,% ID/g in spleen,[2],24.0497 % ID/g
same,% ID/g in stomach,[2],2.3704 % ID/g
same,% ID/g in tail,[2],8.0722 % ID/g
same,% ID/g in thyroids,[2],9.6295 % ID/g
same,% ID/g in urine,[2],5.0951 % ID/g
same,% ID/g in bladder,[3],1.9351 % ID/g
same,% ID/g in blood,[3],42.3521 % ID/g
same,% ID/g in bone (femur + joint),[3],3.4560 % ID/g
same,% ID/g in brain,[3],0.6755 % ID/g
same,% ID/g in feces,[3],0.4896 % ID/g
same,% ID/g in heart,[3],9.0992 % ID/g
same,% ID/g in kidneys,[3],14.2266 % ID/g
same,% ID/g in large intestines,[3],1.5716 % ID/g
same,% ID/g in liver,[3],24.1147 % ID/g
same,% ID/g in lungs,[3],14.4797 % ID/g
same,% ID/g in pancreas,[3],2.4405 % ID/g
same,% ID/g in small intestines,[3],2.0956 % ID/g
same,% ID/g in spleen,[3],25.4263 % ID/g
same,% ID/g in stomach,[3],2.4232 % ID/g
same,% ID/g in tail,[3],9.1381 % ID/g
same,% ID/g in thyroids,[3],3.5934 % ID/g
same,% ID/g in urine,[3],19.8282 % ID/g
same,% ID/g in bladder,[4],0.9047 % ID/g
same,% ID/g in blood,[4],20.8234 % ID/g
same,% ID/g in bone (femur + joint),[4],2.4707 % ID/g
same,% ID/g in brain,[4],0.2995 % ID/g
same,% ID/g in feces,[4],0.2189 % ID/g
same,% ID/g in heart,[4],4.4261 % ID/g
same,% ID/g in kidneys,[4],7.2170 % ID/g
same,% ID/g in large intestines,[4],0.6035 % ID/g
same,% ID/g in liver,[4],39.8269 % ID/g
same,% ID/g in lungs,[4],8.2412 % ID/g
same,% ID/g in pancreas,[4],2.1771 % ID/g
same,% ID/g in small intestines,[4],1.5594 % ID/g
same,% ID/g in spleen,[4],34.8831 % ID/g
same,% ID/g in stomach,[4],1.6211 % ID/g
same,% ID/g in tail,[4],5.7939 % ID/g
same,% ID/g in thyroids,[4],2.5988 % ID/g
same,% ID/g in urine,[4],4.5194 % ID/g
same,% ID/g in bladder,[5],0.8092 % ID/g
same,% ID/g in blood,[5],21.4460 % ID/g
same,% ID/g in bone (femur + joint),[5],2.7705 % ID/g
same,% ID/g in brain,[5],0.3247 % ID/g
same,% ID/g in feces,[5],0.3300 % ID/g
same,% ID/g in heart,[5],4.5832 % ID/g
same,% ID/g in kidneys,[5],6.8770 % ID/g
same,% ID/g in large intestines,[5],0.5629 % ID/g
same,% ID/g in liver,[5],41.0995 % ID/g
